Reference: patent publication US7901906B2, “Targeting of MKRN1 for identifying cancer treatment agents” (University of Central Florida Research Foundation, Inc., priority 2006, dated 2011)
Non-standard residues stand in square brackets, D forms with d. Residues, ends and D or L forms follow the SMILES beside them. *: point of attachment. Nle = CCCC[C@H](N)C(=O)O; Cbz = O=C(OCc1ccccc1)*

Tested on: MKRN1
Assay: Levels of ectopically expressed MKRN1 by anti-V5 immunoblotting
Assay type: cell-based, human
Method: FIG. 3. MKRN1 interacts with hTERT. (A) Analysis of the physical interaction between hTERT and MKRN1 using the yeast two-hybrid assay. Five domains of hTERT were analyzed for binding to MKRN1. TRF1 bait was used as a negative control. Blue signal on the SG-HWU/X plate indicates activation of the reporter gene, LacZ. S, synthetic; G, galactose; H, histidine (−); W, tryptophan (−); U, uracil (−); X, X-gal. (B) Schematic diagram of MKRN1 domains. Amino acid sequences (SEQ ID NOS 3-5, respectively in order of appearance) surrounding the RING finger domain in MKRN1 and mutants used in this study. Cysteines and a histidine in the RING finger domain are shown in red. Mutated residue in MKRN1^H307E is shown in blue. (C) H1299 cells co-transfected with hTERT-HA and MKRN1-V5 were either untreated or treated for 2 hours with 10 μg/ml ALLnN. Anti-HA immunoprecipitates were analyzed by immunoblotting using an anti-V5 antibody probe. […] (D) H1299 cells co-transfected with Flag-hTERT and MKRN1-V5 were either untreated or treated for 2 hours with 10 μM MG132. Anti-Flag immunoprecipitates were analyzed by immunoblotting using an anti-V5 antibody probe. […] Flag-hTERT was visualized with an anti-Flag antibody probe.
FIG. 4. MKRN1 functions as an E3 ubiquitin-ligase for hTERT in vitro and in vivo. (A) HA-tagged hTERT (residues 946-1132) was incubated MKRN1 or mutants in the presence of E1, E2, His6-ubiquitin (6×His tag disclosed as SEQ ID NO: 7). Samples were resolved by 6% SDS-PAGE and analyzed by immunoblotting with an anti-HA antibody probe. (B) H1299 cells were co-transfected with Flag-hTERT, HA-ubiquitin, MKRN1-V5, and together with either MKRN1^H307E-V5 or MKRN1^Δ^C-V5 as specified. Cells were untreated or treated with 10 μM MG132 for 2 hours. Anti-Flag immunoprecipitates and cell lysates were analyzed by immunoblotting with anti-HA antibody and anti-V5 antibody probes, respectively. (C) H1299 cells co-transfected with Flag-hTERT and HA-ubiquitin, and together with or without MKRN1-V5 as indicated were treated with 10 μM MG132 for the indicated times. Anti-Flag immunoprecipitates and cell lysates were analyzed by immunoblotting with anti-HA antibody and anti-V5 antibody probes, respectively.
FIG. 5. Overexpression of MKRN1 decreases telomerase activity and telomere length. (A) HT1080 cells were stably transfected with MKRN1-V5 or an empty vector. The cells were untreated or treated for 2 hours with 10 μM MG132. Cell lysates were analyzed by immunoblotting with anti-V5 antibody probe. (B) Stable HT1080 cell lines (MKRN1 and vector) were harvested at 45 PD, and telomerase activities were measured with different amounts of proteins using the TRAP assay. The lane labeled LB corresponds to the negative control (lysis buffer only). ITAS represents the internal telomerase assay standard. (C) Cell lysates from stable HT1080 cell lines were analyzed by immunoprecipitation with anti-hTERT antibody followed by immunoblotting using same antibody probe. (D) Representative results of RT-PCR analysis for the expression of MKRN1, hTERT, and hTR in stable HT1080 cell lines. RT-PCR products from each sample were normalized to glyceraldehyde-3-phosphate dehydrogenase (GAPDH) signal. (E) Stable HT1080 cell lines were harvested at 45 PD, and genomic DNA was digested with RsaI and HinfI, followed by Southern blotting using a telomere repeat probe.
H1299 cells were transiently transfected with the expression vectors indicated in the figure legends using TransFast transfection reagent (Promega, Madison, Wis.) according to the manufacturer's instructions. Cells were lysed with buffer containing 0.5% NP-40, 50 mM Tris-HCl (pH 7.5), 150 mM NaCl, 2 mM phenyl methylsulphonyl fluoride. […]

Structure (SMILES) | MKRN1 expression (H1299, MKRN1-V5, 10 μM MG132, 2 hours) | unmodified and polyubiquitinated MKRN1 species over time (H1299, MKRN1-V5, 10 μM MG132, indicated times) | amount of MKRN1^ΔC (H1299, MKRN1^ΔC-V5, 10 μM MG132, 2 hours) | MKRN1^H307E expression level, MG132 treatment versus absence (H1299 cotransfected with MKRN1 and MKRN1^H307E, 10 μM MG132) [fold] | MKRN1 level in stable HT1080 cells (HT1080 stably expressing MKRN1-V5, 10 μM MG132, 2 hours) | MKRN1 species in cell lysates (H1299 co-transfected with hTERT-HA and MKRN1-V5, 10 μg/ml ALLnN, 2 hours)
CC(C)C[C@@H](C=O)NC(=O)[C@H](CC(C)C)NC(=O)[C@H](CC(C)C)NC(=O)OCc1ccccc1 [MG132] (Cbz-Leu-Leu-Leu-aldehyde) | clearly elevated | increased in a time-dependent manner | no effect | ~2 | substantial increase | 
CCCC[C@@H](C=O)NC(=O)[C@H](CC(C)C)NC(=O)[C@H](CC(C)C)NC(C)=O [ALLnN] (Ac-Leu-Leu-[Nle]-aldehyde) |  |  |  |  |  | significant increase
